These results are taken from patent US20250270213A1, “PI3Ka INHIBITORS” (Synnovation Therapeutics, Inc., priority 2022, published 2025).

What all share (assay type): cell-based
The test system of one test is SKBR3 (PIK3CA WT) cells. The experiment in a line: pS473 AKT assay, SKBR3 cells. The note with it: Homo sapiens, SK-BR-3, pSer473 AKT, complete medium with 10% fetal bovine serum, 2 h treatment, read-out: SKBR3_IC50. Here is the method:
(§1) Example A. pS473 AKT Assay Protocol
(§2) SKBR3 (PIK3CA WT), MCF7 (PIK3CA E545K), and T47D (PIK3CA H1047R) cells were cultured using 10-cm petri dishes with recommended medium plus 10% fetal bovine serum. One day before the assay, cells were seeded in 96-well plates at a final density of 10,000 cells per well. After overnight incubation in complete medium, cells were treated with different concentrations of PI3Kα inhibitors for 2 h. Cells were then fixed using 4% paraformaldehyde at room temperature for 20 min. Aspirate 4% paraformaldehyde, and wash cells using 1× regular phosphate buffered saline 3 times, 5 min each. Aspirate any residual phosphate buffered saline and block cells using 10% goat serum containing 1% bovine serum albumin and 0.3% Triton X-100 at room temperature for 1 h. Without any additional washing, primary antibodies (rabbit anti-pSer473 AKT) were diluted using blocking buffer and added at a final volume of 50 microliter per well. Keep assay plates with primary antibodies overnight at 4° C. Wash cells using 1× regular phosphate buffered saline 3 times, 5 min each. After the final wash, incubate cells with horseradish peroxidase-conjugated secondary antibodies (goat Anti-rabbit IgG) diluted using the same blocking buffer at room temperature for 1 h. Wash cells thoroughly using 1× regular phosphate buffered saline 3 times, 5 min each. Aspirate any residual phosphate buffered saline. Add Super-Signal ELISA Pico Chemiluminescent Substrate at a final volume of 100 microliter per well. Read plates on i3x Multi-Mode Microplate Reader and calculate IC50 values using GraphPad Prism software.

Test [1] concerns MCF7 (PIK3CA E545K) cells. The test can be described thus: pS473 AKT assay, MCF7 cells. To be noted: Homo sapiens, pSer473 AKT, complete medium with 10% fetal bovine serum, 2 h treatment, read-out: MCF7_IC50. As to the method: as §1, §2
Test [2] deals with T47D (PIK3CA H1047R) cells. The test can be described thus: pS473 AKT assay, T47D cells. The note with it: Homo sapiens, pSer473 AKT, complete medium with 10% fetal bovine serum, 2 h treatment, read-out: T47D_IC50. As to the method:
as §1, §2

The test system of test [3] is T47D (PIK3CA H1047R) cells. The test can be described thus: pS473 AKT assay with 2.5% FBS, T47D cells. The note with it: Homo sapiens, pSer473 AKT, DMEM with 2.5% FBS, 2 h treatment, read-out: T47D_IC50. The procedure, abridged: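 In-cell chemiluminescent ELISA of AKT Ser473 phosphorylation, using anti-pSer473 primary and HRP secondary antibodies on fixed cells. T47D (PIK3CA H1047R) cells had 2 h of compound treatment in DMEM containing 2.5% FBS; IC50 derived from dose-response.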

On to `Cc1cc(C(C)Nc2ccccc2C(=O)O)c2c(c1)c(=O)n(C)c1ccnn21` (stereo not drawn) [Compound I-1, 2-((1-(4,7-dimethyl-5-oxo-4,5-dihydropyrazolo[1,5-a]quinazolin-9-yl)ethyl)amino)benzoic acid], for which the figures for the IC50 (with SKBR3 (PIK3CA WT) cells; in test [1]; in test [2]) were > 30000 nM, > 30000 nM and 1000 to 5000 nM, respectively.
For the compound `Cc1cc(C(C)Nc2ccccc2C(=O)O)c2c(c1)c(=O)n(C)c1c(-c3ccccc3)cnn21` (stereo not drawn) [Compound I-2, 2-((1-(4,7-dimethyl-5-oxo-3-phenyl-4,5-dihydropyrazolo[1,5-a]quinazolin-9-yl)ethyl)amino)benzoic acid], the IC50 with SKBR3 (PIK3CA WT) cells is > 30000 nM; in test [1], > 30000 nM; in test [2], 1000 to 5000 nM.
For the compound `C=Cc1cnn2c3c(C(C)Nc4ccccc4C(=O)O)cc(C)cc3c(=O)n(C)c12` (stereo not drawn) [Compound I-3, 2-((1-(4,7-dimethyl-5-oxo-3-vinyl-4,5-dihydropyrazolo[1,5-a]quinazolin-9-yl)ethyl)amino)benzoic acid], the IC50 in the test with SKBR3 (PIK3CA WT) cells was > 30000 nM; in test [1] it was > 30000 nM; in test [2], 1000 to 5000 nM.
Take `Cc1cc(C(C)Nc2ccc(Cl)nc2-c2cnn(C)c2)c2c(c1)c(=O)n(C)c1c2cnn1-c1ccccn1` (stereo not drawn) [Example 273, 9-(1-((6-chloro-2-(1-methyl-1H-pyrazol-4-yl)pyridin-3-yl)amino)ethyl)-4,7-dimethyl-3-(pyridin-2-yl)-3,4-dihydro-5H-pyrazolo[3,4-c]isoquinolin-5-one]: the IC50 in test [3] is < 1000 nM.
The same measure, in the same setting: the figure for `CCn1c(=O)c2cc(C)cc(C(C)Nc3ccc(Cl)nc3-c3ncn(C)n3)c2c2cnn(-c3cccnc3)c21` (stereo not drawn) [Example 274, 9-[1-[[6-Chloro-2-(1-methyl-1,2,4-triazol-3-yl)-3-pyridyl]amino]ethyl]-4-ethyl-7-methyl-3-(3-pyridyl)pyrazolo[3,4-c]isoquinolin-5-one] is < 1000 nM; for `Cc1cc(C(C)Nc2ccc(Cl)nc2-c2cnn(C)c2)c2c(c1)c(=O)n(C)c1c2cnn1Cc1ccccn1` (stereo not drawn) [Example 275, 9-[1-[[6-Chloro-2-(1-methylpyrazol-4-yl)-3-pyridyl]amino]ethyl]-4,7-dimethyl-3-(2-pyridylmethyl)pyrazolo[3,4-c]isoquinolin-5-one] it is < 1000 nM.
Same read-out and setting: then `Cc1cc(C(C)Nc2ccc(Cl)nc2-c2noc(=O)[nH]2)c2c(c1)c(=O)n(C)c1c2cnn1Cc1ccccn1` (stereo not drawn) [Example 276, 3-(6-Chloro-3-((1-(4,7-dimethyl-5-oxo-3-(pyridin-2-ylmethyl)-4,5-dihydro-3H-pyrazolo[3,4-c]isoquinolin-9-yl)ethyl)amino)pyridin-2-yl)-1,2,4-oxadiazol-5(4H)-one], with < 1000 nM; and `Cc1cc(C(C)Nc2ccc(Cl)nc2-c2ncn(C)n2)c2c(c1)c(=O)n(C)c1c2cnn1C1CCCN(C)C1` (stereo not drawn) [Example 277, 9-[1-[[6-Chloro-2-(1-methyl-1,2,4-triazol-3-yl)-3-pyridyl]amino]ethyl]-4,7-dimethyl-3-(1-methyl-3-piperidyl)pyrazolo[3,4-c]isoquinolin-5-one], with < 1000 nM.
With `Cc1cc(C(C)Nc2ccc(Cl)nc2-c2ncn(C)n2)c2c(c1)c(=O)n(C)c1c2cnn1C1CCCN(CCO)C1` (stereo not drawn) [Example 278, 9-[1-[[6-chloro-2-(1-methyl-1,2,4-triazol-3-yl)-3-pyridyl]amino]ethyl]-3-[1-(2-hydroxyethyl)-3-piperidyl]-4,7-dimethyl-pyrazolo[3,4-c]isoquinolin-5-one], in test [3], the IC50 was < 1000 nM.
On the same count and under the same terms, the figure for `Cc1cc(C(C)Nc2ccc(Cl)nc2-c2cnn(C)c2)c2c(c1)c(=O)n(C)c1c2cnn1C1CCCN(C)C1` (stereo not drawn) [Example 279, 9-[1-[[6-chloro-2-(1-methylpyrazol-4-yl)-3-pyridyl]amino]ethyl]-4,7-dimethyl-3-(1-methyl-3-piperidyl)pyrazolo[3,4-c]isoquinolin-5-one] is < 1000 nM; for `Cc1cc(C(C)Nc2ccc(Cl)nc2-c2cnn(C)c2)c2c(c1)c(=O)n(C)c1c2cnn1C1CCCN(CCO)C1` (stereo not drawn) [Example 280, 9-[1-[[6-chloro-2-(1-methylpyrazol-4-yl)-3-pyridyl]amino]ethyl]-3-[1-(2-hydroxyethyl)-3-piperidyl]-4,7-dimethyl-pyrazolo[3,4-c]isoquinolin-5-one] it is < 1000 nM.
The same measure, in the same setting: then `COC(=O)N1CCCC(n2ncc3c4c(C(C)Nc5ccc(Cl)nc5-c5cnn(C)c5)cc(C)cc4c(=O)n(C)c32)C1` (stereo not drawn) [Example 281, methyl 3-[9-[1-[[6-chloro-2-(1-methylpyrazol-4-yl)-3-pyridyl]amino]ethyl]-4,7-dimethyl-5-oxo-pyrazolo[3,4-c]isoquinolin-3-yl]piperidine-1-carboxylate], with < 1000 nM; and `CNC(=O)c1ccc(-c2nc(Cl)ccc2OC(C)c2cc(C)cc3c(=O)n(C)c4c(cnn4C4CCN(C)CC4)c23)cn1` (stereo not drawn) [Example 282, 5-[6-Chloro-3-[1-[4,7-dimethyl-3-(1-methyl-4-piperidyl)-5-oxo-pyrazolo[3,4-c]isoquinolin-9-yl]ethoxy]-2-pyridyl]-N-methyl-pyridine-2-carboxamide], with < 1000 nM.
`CNC(=O)c1ccc(-c2nc(Cl)ccc2OC(C)c2cc(C)cc3c(=O)n(C)c4c(cnn4C4CCN(C(C)=O)CC4)c23)cn1` (stereo not drawn) [Example 283, 5-[3-[1-[3-(1-Acetyl-4-piperidyl)-4,7-dimethyl-5-oxo-pyrazolo[3,4-c]isoquinolin-9-yl]ethoxy]-6-chloro-2-pyridyl]-N-methyl-pyridine-2-carboxamide]: the IC50 in test [3] was < 1000 nM.
`Cc1cc(C(C)Nc2ccc(Cl)nc2-c2ncn(C)n2)c2c(c1)c(=O)n1c3c2cnn3C(CO)CC1` (stereo not drawn) [Example 284, 10-(1-((6-Chloro-2-(1-methyl-1H-1,2,4-triazol-3-yl)pyridin-3-yl)amino)ethyl)-3-(hydroxymethyl)-8-methyl-4,5-dihydro-3H,6H-2,2a,5a-triazaaceanthrylen-6-one]: the IC50 in test [3] was < 1000 nM.
The same measure, in the same setting: then `Cc1cc(C(C)Nc2ccc(Cl)nc2-c2nnn(C)n2)c2c(c1)c(=O)n1c3c2cnn3C(CO)CC1` (stereo not drawn) [Example 285, 10-(1-((6-chloro-2-(2-methyl-2H-tetrazol-5-yl)pyridin-3-yl)amino)ethyl)-3-(hydroxymethyl)-8-methyl-4,5-dihydro-3H,6H-2,2a,5a-triazaaceanthrylen-6-one], with < 1000 nM; and `Cc1cc(C(C)Nc2ccc(Cl)nc2-c2nnco2)c2c(c1)c(=O)n1c3c2cnn3C(CO)CC1` (stereo not drawn) [Example 286, 10-(1-((6-chloro-2-(1,3,4-oxadiazol-2-yl)pyridin-3-yl)amino)ethyl)-3-(hydroxymethyl)-8-methyl-4,5-dihydro-3H,6H-2,2a,5a-triazaaceanthrylen-6-one], with < 1000 nM.
Consider `Cc1cc(C(C)Nc2ccc(Cl)nc2-c2cnn(C)c2)c2c(c1)c(=O)n1c3c2cnn3C(CO)CC1` (stereo not drawn) [Example 287, 10-(1-((6-chloro-2-(1-methyl-1H-pyrazol-4-yl)pyridin-3-yl)amino)ethyl)-3-(hydroxymethyl)-8-methyl-4,5-dihydro-3H,6H-2,2a,5a-triazaaceanthrylen-6-one], for which the IC50 in test [3] is < 1000 nM.
Still for that read-out and setting: then `Cc1cc(C(C)Nc2ccc(Cl)nc2-c2c[nH]nc2C)c2c(c1)c(=O)n1c3c2cnn3C(CO)CC1` (stereo not drawn) [Example 288, 10-(1-((6-chloro-2-(3-methyl-1H-pyrazol-4-yl)pyridin-3-yl)amino)ethyl)-3-(hydroxymethyl)-8-methyl-4,5-dihydro-3H,6H-2,2a,5a-triazaaceanthrylen-6-one], with < 1000 nM.
Same read-out and setting: the figure for `Cc1cc(C(C)Nc2ccc(Cl)nc2-c2ccc(=O)n(C)c2)c2c(c1)c(=O)n1c3c2cnn3C(CO)CC1` (stereo not drawn) [Example 289, 10-(1-((6-chloro-1′-methyl-6′-oxo-1′,6′-dihydro-[2,3′-bipyridin]-3-yl)amino)ethyl)-3-(hydroxymethyl)-8-methyl-4,5-dihydro-3H,6H-2,2a,5a-triazaaceanthrylen-6-one] is < 1000 nM; for `Cc1cc(C(C)Nc2ccc(Cl)nc2-c2ncn(C)n2)c2c(c1)c(=O)n1c3c2cnn3C(CN(C)C)CC1` (stereo not drawn) [Example 290, 10-(1-((6-Chloro-2-(1-methyl-1H-1,2,4-triazol-3-yl)pyridin-3-yl)amino)ethyl)-3-((dimethylamino)methyl)-8-methyl-4,5-dihydro-3H,6H-2,2a,5a-triazaaceanthrylen-6-one] it is < 1000 nM.
